# Reference: patent US8299056B2 (Signal Pharmaceuticals, LLC, priority 2008, dated 2012)
# pIC50: −log10 of the molar value. Where two headings read alike, the source gives them in different places.
# Molecular target: T1, Syk (Homo sapiens, UniProt P43405)
# T1 construct: purchased Carna Biosciences
# Experiment: Syk HTRF assay
# Format: biochemical
# Outline: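 Read-out is the 665 nm/615 nm time-resolved fluorescence ratio after EDTA stop and Eu-anti-phosphotyrosine plus streptavidin-DyLight 647 detection. Reaction ran 1 h at room temperature with start mix of 87.5 μM ATP and 80 nM substrate peptide in pH 7.6 HEPES/MgCl2 buffer.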
# [1] = read-out: Activity Level (Syk HTRF assay IC50)
# [2] = activity levels A-D, read-out: Activity Level (IC50 in the Syk HTRF assay)
# [3] = IC50 activity level, read-out: Activity Level
pIC50 [1],pIC50 [2],SMILES,other results
6.60 to 11.30,–,"CC1(C)C(=O)Nc2cc(Nc3nc4cccc(NC5CCCNC5)n4n3)ccc21 (stereo in doubt) [Example 154, (S)-3,3-dimethyl-6-(5-(piperidin-3-ylamino)-[1,2,4]triazolo[1,5-a]pyridin-2-ylamino)indolin-2-one]",–
6.60 to 11.30,–,O=C1CCCN1c1ccc(Nc2nc3cccc(-c4ccccc4)n3n2)cc1 [compound 50],–
–,6.60 to 11.30,"Nc1n[nH]c2cc(Nc3nc4cccc(N[C@H]5CC[C@@H](O)CC5)n4n3)ccc12 [Example 216, cis-4-(2-(3-amino-1H-indazol-6-ylamino)-[1,2,4]triazolo[1,5-a]pyridin-5-ylamino)cyclohexanol]",–
–,–,"O=C1NCc2cc(-c3cccc4nc(Nc5ccccc5)nn34)ccc21 [Example 496, 5-(2-(phenylamino)-[1,2,4]triazolo[1,5-a]pyridin-5-yl)isoindolin-1-one]",pIC50 [3]: 6.30 to 6.60
6.60 to 11.30,–,"CNC(=O)c1ccc(Nc2nc3cccc(-c4cccc(O)c4)n3n2)cc1 [compound 36, 4-(5-(3-hydroxyphenyl)-[1,2,4]triazolo[1,5-a]pyridin-2-ylamino)-N-methylbenzamide]",–
–,6.30 to 6.60,"CNC(=O)c1ccc(Nc2nc3cccc(N4CCCC4)n3n2)cc1 [Example 251, N-methyl-4-(5-(pyrrolidin-1-yl)-[1,2,4]triazolo[1,5-a]pyridin-2-ylamino)benzamide]",–
6.60 to 11.30,–,"CC(C)n1ncc2ccc(Nc3nc4cccc(CN5CCNC(=O)C5)n4n3)cc21 [Example 188, 4-((2-(1-isopropyl-1H-indazol-6-ylamino)-[1,2,4]triazolo[1,5-a]pyridin-5-yl)methyl)piperazin-2-one]",–
–,–,"O[C@H]1CC[C@@H](Cc2cccc3nc(Nc4ccc(C(F)(F)F)cc4)nn23)CC1 [Example 399, cis-4-((2-(4-(trifluoromethyl)phenylamino)-[1,2,4]triazolo[1,5-a]pyridin-5-yl)methyl)cyclohexanol]",pIC50 [3]: 6.60 to 11.30
–,6.30 to 6.60,"NC(=O)c1cccc(Nc2nc3cccc(N[C@H]4CC[C@@H](O)CC4)n3n2)c1 [Example 337, cis-3-(5-(4-hydroxycyclohexylamino)-[1,2,4]triazolo[1,5-a]pyridin-2-ylamino)benzamide]",–
6.60 to 11.30,–,"CNC(=O)c1ccc(Nc2nc3cccc(-c4cccc(CN)c4)n3n2)cc1 [compound 33, 4-(5-(3-(aminomethyl)phenyl)-[1,2,4]triazolo[1,5-a]pyridin-2-ylamino)-N-methylbenzamide]",–
–,6.60 to 11.30,"OCCOc1cc(Nc2nc3cccc(N[C@H]4CC[C@@H](O)CC4)n3n2)ccn1 [Example 277, cis-4-(2-(2-(2-hydroxyethoxy)pyridin-4-ylamino)-[1,2,4]triazolo[1,5-a]pyridin-5-ylamino)cyclohexanol]",–
–,5.00 to 6.00,"FC(F)(F)c1ccc(Nc2nc3cccc(Cc4ccncc4)n3n2)cc1 [Example 372, 5-(pyridin-4-ylmethyl)-N-(4-(trifluoromethyl)phenyl)-[1,2,4]triazolo[1,5-a]pyridin-2-amine]",–
5.00 to 6.00,–,"N#Cc1cccc(Nc2nc3cccc(-c4ccccc4)n3n2)c1 [compound 66, 3-(5-phenyl-[1,2,4]triazolo[1,5-a]pyridin-2-ylamino)benzonitrile]",–
5.00 to 6.00,–,"NC(=O)c1ccc(Nc2nc3cccc(-c4ccccc4)n3n2)cc1F [compound 73, 2-fluoro-4-(5-phenyl-[1,2,4]triazolo[1,5-a]pyridin-2-ylamino)benzamide]",–
6.30 to 6.60,–,"O=C1NCc2cc(Nc3nc4cccc(-c5ccccc5)n4n3)ccc21 [compound 69, 5-(5-phenyl-[1,2,4]triazolo[1,5-a]pyridin-2-ylamino)isoindolin-1-one]",–
–,5.00 to 6.00,"O[C@H]1CCN(Cc2cccc3nc(Nc4ccc(C(F)(F)F)cc4)nn23)C1 [Example 336, (S)-1-((2-(4-(trifluoromethyl)phenylamino)-[1,2,4]triazolo[1,5-a]pyridin-5-yl)methyl)pyrrolidin-3-ol]",–
–,6.00 to 6.30,"COc1ccc(Nc2nc3cccc(N[C@H]4CC[C@@H](O)CC4)n3n2)cn1 [Example 391, cis-4-(2-(6-methoxypyridin-3-ylamino)-[1,2,4]triazolo[1,5-a]pyridin-5-ylamino)cyclohexanol]",–
–,5.00 to 6.00,"CNC(=O)c1ccc(Nc2nc3cccc(-n4ccnc4)n3n2)cc1 [Example 241, 4-(5-(1H-imidazol-1-yl)-[1,2,4]triazolo[1,5-a]pyridin-2-ylamino)-N-methylbenzamide]",–
–,–,"Fc1ccc(Nc2nc3cccc(-c4ccc5cn[nH]c5c4)n3n2)cc1 [Example 436, N-(4-fluorophenyl)-5-(1H-indazol-6-yl)-[1,2,4]triazolo[1,5-a]pyridin-2-amine]",pIC50 [3]: 6.60 to 11.30
–,6.60 to 11.30,"O=C1CN(Cc2cccc3nc(Nc4ccc(C(F)(F)F)cc4)nn23)CC(=O)N1 [Example 264, 4-((2-(4-(trifluoromethyl)phenylamino)-[1,2,4]triazolo[1,5-a]pyridin-5-yl)methyl)piperazine-2,6-dione]",–

pIC50 [1],pIC50 [2],SMILES,other results
–,–,"c1cc(N[C@@H]2CCCNC2)n2nc(Nc3ccc4cn[nH]c4c3)nc2c1 [Example 467, (R)-N^2-(1H-indazol-6-yl)-N^5-(piperidin-3-yl)-[1,2,4]triazolo[1,5-a]pyridin-2,5-diamine]",pIC50 [3]: 6.60 to 11.30
–,5.00 to 6.00,"OC1CCN(Cc2cccc3nc(Nc4ccc(C(F)(F)F)cc4)nn23)CC1 [Example 396, 1-((2-(4-(trifluoromethyl)phenylamino)-[1,2,4]triazolo[1,5-a]pyridin-5-yl)methyl)piperidin-4-ol]",–
–,6.30 to 6.60,"O[C@H]1CC[C@@H](Nc2cccc3nc(Nc4ccc(F)c(F)c4)nn23)CC1 [Example 311, cis-4-(2-(3,4-difluorophenylamino)-[1,2,4]triazolo[1,5-a]pyridin-5-ylamino)cyclohexanol]",–
–,6.60 to 11.30,"Cc1c2ccc(Nc3nc4cccc(N[C@H]5CC[C@@H](O)CC5)n4n3)cc2nn1C [Example 217, cis-4-(2-(2,3-dimethyl-2H-indazol-6-ylamino)-[1,2,4]triazolo[1,5-a]pyridin-5-ylamino)cyclohexanol]",–
–,5.00 to 6.00,"O[C@H]1CC[C@@H](Nc2cccc3nc(Nc4cccnc4F)nn23)CC1 [Example 322, cis-4-(2-(2-fluoropyridin-3-ylamino)-[1,2,4]triazolo[1,5-a]pyridin-5-ylamino)cyclohexanol]",–
–,6.60 to 11.30,"CNC(=O)c1ccc(Nc2nc3cccc(CC4CCC(N)CC4)n3n2)cc1 (stereo not drawn) [Example 262, 4-(5-((4-aminocyclohexyl)methyl)-[1,2,4]triazolo[1,5-a]pyridin-2-ylamino)-N-methylbenzamide]",–
–,6.00 to 6.30,"CNC(=O)c1ccc(Nc2nc3cccc(N[C@H]4CC[C@@H](O)CC4)n3n2)cc1 [Example 386, cis-4-(5-(4-hydroxycyclohexylamino)-[1,2,4]triazolo[1,5-a]pyridin-2-ylamino)-N-methylbenzamide]",–
6.30 to 6.60,–,"O=C1Cc2ccc(Nc3nc4cccc(N[C@H]5CC[C@@H](O)CC5)n4n3)cc2N1CCO [Example 185, cis-6-(5-(4-hydroxycyclohexylamino)-[1,2,4]triazolo[1,5-a]pyridin-2-ylamino)-1-(2-hydroxyethyl)indolin-2-one]",–
–,6.60 to 11.30,"Cc1n[nH]c2cc(Nc3nc4cccc(N[C@H]5CC[C@@H](O)CC5)n4n3)ccc12 [Example 351, cis-4-(2-(3-methyl-1H-indazol-6-ylamino)-[1,2,4]triazolo[1,5-a]pyridin-5-ylamino)cyclohexanol]",–
6.60 to 11.30,–,"CC1(C)C(=O)Nc2cc(Nc3nc4cccc(N5CC(O)C5)n4n3)ccc21 [Example 170, 6-(5-(3-hydroxyazetidin-1-yl)-[1,2,4]triazolo[1,5-a]pyridin-2-ylamino)-3,3-dimethylindolin-2-one]",–
6.60 to 11.30,–,"Cc1cc(Nc2nc3cccc(Cc4ccnc(O)c4)n3n2)cc2[nH]ncc12 [compound 124, 4-((2-(4-methyl-1H-indazol-6-ylamino)-[1,2,4]triazolo[1,5-a]pyridin-5-yl)methyl)pyridine-2-ol]",–
–,5.00 to 6.00,"O=C1c2cc(Nc3nc4cccc(N[C@H]5CC[C@@H](O)CC5)n4n3)ccc2CN1CCO [Example 206, cis-6-(5-(4-hydroxycyclohexylamino)-[1,2,4]triazolo[1,5-a]pyridin-2-ylamino)-2-(2-hydroxyethyl)isoindolin-1-one]",–
–,–,"OC1CCC(Nc2cccc3nc(Nc4ccccc4)nn23)CC1 (stereo in doubt) [Example 470, trans-4-(2-(phenylamino)-[1,2,4]triazolo[1,5-a]pyridin-5-ylamino)cyclohexanol]",pIC50 [3]: 5.00 to 6.00
6.60 to 11.30,–,NC(=O)c1ccc(Nc2nc3cccc(-c4ccccc4)n3n2)cc1 [Example 88],–
6.60 to 11.30,–,"Cc1cc(Nc2nc3cccc(NC4CCOCC4)n3n2)cc2c1cnn2C [Example 148, N^2-(1,4-dimethyl-1H-indazol-6-yl)-N^5-(tetrahydro-2H-pyran-4-yl)-[1,2,4]triazolo[1,5-a]pyridin-2,5-diamine]",–
–,5.00 to 6.00,"C[C@H](NCc1cccc2nc(Nc3ccc(C(F)(F)F)cc3)nn12)C(N)=O [Example 222, (S)-2-((2-(4-(trifluoromethyl)phenylamino)-[1,2,4]triazolo[1,5-a]pyridin-5-yl)methylamino)propanamide]",–
6.60 to 11.30,–,"Cc1n[nH]c2cc(Nc3nc4cccc(NC[C@@H]5CCC(O)C5)n4n3)ccc12 (stereo in doubt) [Example 179, (1R,3R)-3-((2-(3-methyl-1H-indazol-6-ylamino)-[1,2,4]triazolo[1,5-a]pyridin-5-ylamino)methyl)cyclopentanol]",–
–,6.00 to 6.30,"Cc1n[nH]c2cc(Nc3nc4cccc(C(O)C5CCOCC5)n4n3)ccc12 (stereo not drawn) [Example 200, (2-(3-methyl-1H-indazol-6-ylamino)-[1,2,4]triazolo[1,5-a]pyridin-5-yl)(tetrahydro-2H-pyran-4-yl)methanol]",–
6.60 to 11.30,–,"Cn1cnc2ccc(Nc3nc4cccc(-c5ccccc5)n4n3)cc21 [compound 47, N-(1-methyl-1H-benzo[d]imidazol-6-yl)-5-phenyl-[1,2,4]triazolo[1,5-a]pyridin-2-amine]",–
